Results published in US20160130278A1 (TAISHO PHARMACEUTICAL CO., LTD, priority 2013, published 2016).

Biological target: T1, human type 1 glycine transporter (GlyT1) (Homo sapiens, UniProt P48067)
T1 construct: T98G cells (glioma cells) expressing human type 1 glycine transporter (GlyT1) were used
T1 sequence (P48067 1-706): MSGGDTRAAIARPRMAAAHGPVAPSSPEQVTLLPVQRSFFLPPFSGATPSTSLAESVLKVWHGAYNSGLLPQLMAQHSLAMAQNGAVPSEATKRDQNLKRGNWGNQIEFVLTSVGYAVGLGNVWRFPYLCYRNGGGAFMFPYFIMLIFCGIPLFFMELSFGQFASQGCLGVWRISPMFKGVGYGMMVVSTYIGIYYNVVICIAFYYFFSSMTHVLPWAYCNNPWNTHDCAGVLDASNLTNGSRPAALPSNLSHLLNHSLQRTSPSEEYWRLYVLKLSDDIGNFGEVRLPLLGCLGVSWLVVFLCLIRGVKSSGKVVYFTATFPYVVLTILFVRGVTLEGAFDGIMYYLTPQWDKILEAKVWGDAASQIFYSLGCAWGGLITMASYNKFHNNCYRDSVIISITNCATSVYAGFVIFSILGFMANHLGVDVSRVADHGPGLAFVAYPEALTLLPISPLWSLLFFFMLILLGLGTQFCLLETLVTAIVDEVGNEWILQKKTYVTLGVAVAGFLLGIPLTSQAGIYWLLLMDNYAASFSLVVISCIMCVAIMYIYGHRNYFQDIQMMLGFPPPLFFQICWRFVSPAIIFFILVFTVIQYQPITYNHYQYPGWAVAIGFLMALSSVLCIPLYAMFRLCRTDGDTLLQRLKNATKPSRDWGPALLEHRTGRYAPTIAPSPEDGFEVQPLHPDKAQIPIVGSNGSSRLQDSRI
Experiment: Glycine uptake inhibition experiment ([3H]glycine uptake)
Assay type: cell-based
Outline: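 T98G glioma cells expressing human GlyT1 were pretreated 10 min with compound in HEPES buffer pH 7.4 (0.2% BSA), then incubated with compound plus 250 nM final [3H]glycine for 15 min at room temperature. Intracellular radioactivity was counted after NaOH lysis; 10 μM ALX5407 defined non-specific uptake. IC50 came from 10^−9–10^−5 M curves.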

Row | SMILES | IC50 (GlyT1) | IC50 (human GlyT1)
1 | O=C(NC(c1ccccc1Cl)[C@]1(O)CC[C@@H](F)CC1)c1nccc(C(F)(F)F)c1Cl (single isomer, unassigned) [Compound 210, 3-chloro-N-[(2-chlorophenyl)(cis-4-fluoro-1-hydroxycyclohexyl)methyl]-4-(trifluoromethyl)pyridine-2-carboxamide] | 3200 nM | –
2 | CCn1cc(-c2cccc(C(NC(=O)c3nccc4ccccc34)C3(O)CCCC3)c2)cn1 (centres unmarked) [Compound 22, N-{[3-(1-ethyl-1H-pyrazol-4-yl)phenyl](1-hydroxycyclopentyl)methyl}isoquinoline-1-carboxamide] | 110 nM | –
3 | Cc1cccc(C)c1C(=O)NC(c1ccccc1)C1(O)CCCC1 (centres unmarked) [Compound 30, N-[(1-hydroxycyclopentyl)(phenyl)methyl]-2,6-dimethylbenzamide] | 6500 nM | –
4 | O=C(NC(c1cccc(F)c1)C1(O)CCCC1)c1nccc(C(F)(F)F)c1Cl (single isomer, unassigned) [Compound 53, 3-chloro-N-[(3-fluorophenyl)(1-hydroxycyclopentyl)methyl]-4-(trifluoromethyl)pyridine-2-carboxamide] | 1500 nM | –
5 | COc1ccccc1C(NC(=O)c1nccc(C(F)(F)F)c1Cl)C1(O)CCCC1 (centres unmarked) [Compound 50, 3-chloro-N-[(1-hydroxycyclopentyl)(2-methoxyphenyl)methyl]-4-(trifluoromethyl)pyridine-2-carboxamide] | 540 nM | –
6 | CCn1cc(-c2cccc(C(NC(=O)c3cccc(C(F)(F)F)c3C)C3(O)CCC(F)(F)CC3)c2)cn1 (single isomer, unassigned) [Compound 149, N-{(4,4-difluoro-1-hydroxycyclohexyl)[3-(1-ethyl-1H-pyrazol-4-yl)phenyl]methyl}-2-methyl-3-(trifluoromethyl)benzamide] | 2600 nM | –
7 | Cc1cccc(C(NC(=O)c2nccc(C(F)(F)F)c2Cl)C2(O)CCCC2)c1 (single isomer, unassigned) [Compound 56, 3-chloro-N-[(1-hydroxycyclopentyl)(3-methylphenyl)methyl]-4-(trifluoromethyl)pyridine-2-carboxamide] | 240 nM | –
8 | O=C(NC(c1cccc(F)c1F)C1(O)CCC(F)CC1)c1nccc(C(F)(F)F)c1Cl (single isomer, unassigned) [Compound 204, 3-chloro-N-[(2,3-difluorophenyl)(4-fluoro-1-hydroxycyclohexyl)methyl]-4-(trifluoromethyl)pyridine-2-carboxamide] | 100 nM | –
9 | CCn1cc(-c2cccc(C(NC(=O)c3ccnc(Cl)c3Cl)C3(O)CCC(F)(F)CC3)c2)cn1 (centres unmarked) [Compound 173, 2,3-dichloro-N-{(4,4-difluoro-1-hydroxycyclohexyl)[3-(1-ethyl-1H-pyrazol-4-yl)phenyl]methyl}pyridine-4-carboxamide] | 1000 nM | –
10 | CCn1cc(-c2cccc(C(NC(=O)c3ccc(Cl)cc3Cl)C3(O)CCC(F)(F)CC3)c2)cn1 (centres unmarked) [Compound 191, 2,4-dichloro-N-{(4,4-difluoro-1-hydroxycyclohexyl)[3-(1-ethyl-1H-pyrazol-4-yl)phenyl]methyl}benzamide] | 1300 nM | –
11 | O=C(NC(c1cccc(Br)c1)C1(O)CCC(F)(F)CC1)c1nccc(C(F)(F)F)c1Cl (single isomer, unassigned) [Compound 89, N-[(3-bromophenyl)(4,4-difluoro-1-hydroxycyclohexyl)methyl]-3-chloro-4-(trifluoromethyl)pyridine-2-carboxamide] | 1100 nM | –
12 | CC(C)n1cc(-c2cccc(C(NC(=O)c3nccc(C(F)(F)F)c3Cl)C3(O)CCC(F)(F)CC3)c2)cn1 (centres unmarked) [Compound 129, 3-chloro-N-[(4,4-difluoro-1-hydroxycyclohexyl){3-[1-(propan-2-yl)-1H-pyrazol-4-yl]phenyl}methyl]-4-(trifluoromethyl)pyridine-2-carboxamide] | 99 nM | –
13 | CCn1cc(-c2cccc(C(NC(=O)c3cc(Cl)ccc3C(F)(F)F)C3(O)CCC(F)(F)CC3)c2)cn1 (centres unmarked) [Compound 203, 5-chloro-N-{(4,4-difluoro-1-hydroxycyclohexyl)[3-(1-ethyl-1H-pyrazol-4-yl)phenyl]methyl}-2-(trifluoromethyl)benzamide] | 730 nM | –
14 | O=C(NC(c1cccc(Cl)c1)C1(O)CCCC1)c1nccc(C(F)(F)F)c1Cl (single isomer, unassigned) [Compound 54, 3-chloro-N-[(3-chlorophenyl)(1-hydroxycyclopentyl)methyl]-4-(trifluoromethyl)pyridine-2-carboxamide] | 57 nM | –
15 | CCn1cc(-c2cccc(C(NC(=O)c3ccnc(C(F)(F)F)c3Cl)C3(O)CCC(F)(F)CC3)c2)cn1 (centres unmarked) [Compound 157, 3-chloro-N-[(4,4-difluoro-1-hydroxycyclohexyl)[3-(1-ethyl-1H-pyrazol-4-yl)phenyl]methyl]-2-(trifluoromethyl)pyridine-4-carboxamide] | 160 nM | –
16 | O=C(NC(c1cncc(Cl)c1)[C@]1(O)CC[C@@H](F)CC1)c1nccc(C(F)(F)F)c1Cl (single isomer, unassigned) [Compound 243, 3-chloro-N-[(5-chloropyridin-3-yl)(cis-4-fluoro-1-hydroxycyclohexyl)methyl]-4-(trifluoromethyl)pyridine-2-carboxamide] | 1500 nM | –

The remaining lines, values ahead:

Row | IC50 (GlyT1) | IC50 (human GlyT1) | SMILES
17 | 320 nM | – | O=C(NC(c1ccccc1Cl)[C@]1(O)CC[C@@H](F)CC1)c1cc(C(F)(F)F)ncc1Cl (single isomer, unassigned) [Compound 366, 5-chloro-N-[(2-chlorophenyl)(cis-4-fluoro-1-hydroxycyclohexyl)methyl]-2-(trifluoromethyl)pyridine-4-carboxamide]
18 | 990 nM | – | Cc1ccc(Cl)c(C(=O)NC(c2cccc(F)c2Cl)[C@]2(O)CC[C@@H](F)CC2)c1 (single isomer, unassigned) [Compound 294, 2-chloro-N-[(2-chloro-3-fluorophenyl)(cis-4-fluoro-1-hydroxycyclohexyl)methyl]-5-methylbenzamide]
19 | 900 nM | – | O=C(NC(c1cc(Cl)ccn1)[C@]1(O)CC[C@@H](F)CC1)c1nccc2ccccc12 (single isomer, unassigned) [Compound 334, N-[(4-chloropyridin-2-yl)(cis-4-fluoro-1-hydroxycyclohexyl)methyl]isoquinoline-1-carboxamide]
20 | 760 nM | – | O=C(NC(c1ccccc1Cl)[C@]1(O)CC[C@@H](F)CC1)c1ccc(C(F)(F)F)nc1Cl (single isomer, unassigned) [Compound 368, 2-chloro-N-[(2-chlorophenyl)(cis-4-fluoro-1-hydroxycyclohexyl)methyl]-6-(trifluoromethyl)pyridine-3-carboxamide]
21 | 2100 nM | – | O=C(NC(c1cccc(F)c1Cl)[C@]1(O)CC[C@@H](F)CC1)c1cc(F)ccc1Cl (single isomer, unassigned) [Compound 295, 2-chloro-N-[(2-chloro-3-fluorophenyl)(cis-4-fluoro-1-hydroxycyclohexyl)methyl]-5-fluorobenzamide]
22 | 270 nM | – | O=C(NC(c1cccc(F)c1Cl)[C@]1(O)CC[C@@H](F)CC1)c1ccc(C(F)(F)F)cc1-n1nccn1 (single isomer, unassigned) [Compound 380, N-[(2-chloro-3-fluorophenyl)(cis-4-fluoro-1-hydroxycyclohexyl)methyl]-2-(2H-1,2,3-triazol-2-yl)-4-(trifluoromethyl)benzamide]
23 | 40 nM | – | O=C(NC(c1cccc(F)c1Cl)[C@]1(O)CC[C@@H](F)CC1)c1ccc(C(F)(F)F)nc1-n1nccn1 (single isomer, unassigned) [Compound 393, N-[(2-chloro-3-fluorophenyl)(cis-4-fluoro-1-hydroxycyclohexyl)methyl]-2-(2H-1,2,3-triazol-2-yl)-6-(trifluoromethyl)pyridine-3-carboxamide]
24 | 2000 nM | – | O=C(NC(c1cccc(F)c1Cl)[C@]1(O)CC[C@@H](F)CC1)c1ccc(Cl)cc1-n1nccn1 (single isomer, unassigned) [Compound 285, 4-chloro-N-[(2-chloro-3-fluorophenyl)(cis-4-fluoro-1-hydroxycyclohexyl)methyl]-2-(2H-1,2,3-triazol-2-yl)benzamide]
25 | 1000 nM | – | O=C(NC(c1cccc(F)c1Cl)[C@]1(O)CC[C@@H](F)CC1)c1ncc(C(F)(F)F)cc1Cl (single isomer, unassigned) [Compound 320, 3-chloro-N-[(2-chloro-3-fluorophenyl)(cis-4-fluoro-1-hydroxycyclohexyl)methyl]-5-(trifluoromethyl)pyridine-2-carboxamide]
26 | – | 200 nM | CS(=O)(=O)c1cc(C(F)(F)F)ccc1C(=O)NC(c1ccccc1Cl)C1(O)CCC(F)(F)CC1 (single isomer, unassigned) [Compound 405, N-[(2-chlorophenyl)(4,4-difluoro-1-hydroxycyclohexyl)methyl]-2-(methylsulfonyl)-4-(trifluoromethyl)benzamide]
